Laboratory results from publication PMC11939276, “Identifying Baicalein as a Key Bioactive Compound in XueBiJing Targeting KEAP1: Implications for Antioxidant Effects” (Antioxidants, 2025).

Target: T1, KEAP1 (Homo sapiens, UniProt Q14145)
T1 construct: recombinant KEAP1 protein (Sino Biological No. 11981-HNCB)
Test: SPR (Biacore X100, immobilized recombinant KEAP1); supported by CETSA-WB in MCF-7 lysate
Assay type: binding

T1 sequence (Q14145 whole entry): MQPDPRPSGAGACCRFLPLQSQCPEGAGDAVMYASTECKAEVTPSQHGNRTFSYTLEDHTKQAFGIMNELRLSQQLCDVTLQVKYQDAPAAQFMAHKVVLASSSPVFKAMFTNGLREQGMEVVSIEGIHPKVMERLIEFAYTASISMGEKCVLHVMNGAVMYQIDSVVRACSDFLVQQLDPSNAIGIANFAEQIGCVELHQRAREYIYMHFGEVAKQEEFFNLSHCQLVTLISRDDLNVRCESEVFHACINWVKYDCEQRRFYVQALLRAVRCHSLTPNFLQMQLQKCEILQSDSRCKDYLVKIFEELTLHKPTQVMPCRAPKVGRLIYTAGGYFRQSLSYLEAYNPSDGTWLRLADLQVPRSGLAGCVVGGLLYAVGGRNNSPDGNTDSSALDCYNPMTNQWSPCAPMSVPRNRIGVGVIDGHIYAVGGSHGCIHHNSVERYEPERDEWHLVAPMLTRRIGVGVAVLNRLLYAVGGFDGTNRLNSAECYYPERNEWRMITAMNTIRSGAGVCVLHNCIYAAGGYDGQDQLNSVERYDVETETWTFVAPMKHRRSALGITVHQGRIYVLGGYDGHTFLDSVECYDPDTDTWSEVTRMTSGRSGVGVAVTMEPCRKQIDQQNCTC

Q: How did the Kd turn out when O=c1cc(-c2ccccc2)oc2cc(O)c(O)c(O)c12 [Baicalein] was run?
A: 158 µM
